{
  "source": "patent US20230057359A1",
  "about": "“NOVEL USE OF STEVIOL” (SUNTORY HOLDINGS LIMITED, priority 2019, published 2023)",
  "key": {"[1]": {"tested_on": "normal human subcutaneous preadipocytes differentiated into adipocytes", "assay": "Fat accumulation test in adipocytes (oil red staining)", "type": "cell-based", "conditions": "for Relative fat accumulation level (%): 10 days, DMSO=100%", "procedure": "Normal human subcutaneous preadipocytes were precultured using the growth medium in the same manner as in Example 1. The cells were detached using 0.25% trypsin-EDTA, seeded at 10,000 cells/100 μL/well to a 96-well plate using a growth medium, and cultured overnight in a CO2 incubator. On the next day, the medium was replaced with 100 μL of a differentiation medium supplemented with varying concentrations of steviol (12.5, 25, 50, 100 or 200 μg/mL, dissolved in 0.1% DMSO (final concentration)). The cells were cultured for 10 days in a CO2 incubator to induce their differentiation into adipocytes. On the fourth and seventh days after the differentiation induction, the medium was replaced with a fresh medium (100 μL) having the same composition as above. A differentiation medium supplemented with 25 mM LiCl (Cat. No. SML0559, Sigma-Aldrich Co., LLC) was used as a positive control, and a differentiation medium supplemented with 0.1% DMSO (final concentration) was used as a negative control. Cells cultured in a growth medium were used as an untreated control (Untreated). The cells thus cultured were subjected to oil red staining. Specifically, the cells were washed twice with 100 μL of DPBS (Cat. No. 14190250, Thermo Fisher Scientific Inc.). Then, the cells were fixed (room temperature, 10 min) in 100 μL of a 10% formalin solution (Cat. No. 061-00416, FUJIFILM Wako Pure Chemical Corp.). The cells were washed twice with 100 μL of DPBS, then incubated for 1 minute in 100 μL of 60% 2-propanol (Cat. No. 166-04836, FUJIFILM Wako Pure Chemical Corp.) that replaced the medium, and stained for 15 minutes in 100 μL of an oil red staining solution (Cat. No. 00625, Sigma-Aldrich Co., LLC) that replaced the 2-propanol solution. The cells were washed once with 100 μL of 60% 2-propanol and washed twice with 100 μL of DPBS. Then, cell images were taken in 100 μL of DPBS. After subsequent replacement with 120 μL of 100% 2-propanol, oil red was extracted by incubation for 5 minutes, and 100 μL of the extracts was transferred to each well of a fresh 96-well plate. Absorbance (520 nm) was measured using a plate reader (VARIOSKAN FLASH, Thermo Fisher Scientific Inc.), and a relative fat accumulation level was calculated. Significant difference of differentiation non-induced group vs differentiation induced group (negative control group) was tested (two-tailed), and P<0.05 was regarded as having significant difference. Also, significant difference of negative control group vs steviol addition group/positive control group was tested (two-tailed) by the Dunnett test, and P<0.05 was regarded as having significant difference."}, "HepG2 cells": {"tested_on": "HepG2 cells", "assay": "Cytotoxicity of steviol to hepatocytes (WST-8 viable cell count)", "type": "cell-based", "conditions": "for Relative viable cell count (%): 24 hours, Control=100%", "procedure": "5×10^5 HepG2 cells (Cat. No. JCRB1054, JCRB) were precultured for 5 days in a T75 flask using a growth medium (DMEM (high glucose, Cat. No. D5796, Sigma-Aldrich Co., LLC) supplemented with 10% FBS (Cat. No. 172012, Sigma-Aldrich Co., LLC) and 1% penicillin-streptomycin (Cat. No. 09367-34, Nacalai Tesque Inc.)) in a CO2 incubator. The cells were detached using 0.25% trypsin-EDTA, seeded at 10,000 cells/100 μL/well to a 96-well plate using the growth medium, and cultured overnight in a CO2 incubator. On the next day, the medium was replaced with 100 μL of a growth medium supplemented with varying concentrations of steviol (0.001, 0.01, 0.1, 1, 10 or 100 μg/mL, dissolved in 0.1% DMSO (final concentration)), and the cells were cultured for 24 hours in a CO2 incubator. A vehicle control composed of a growth medium supplemented with 0.1% DMSO (final concentration) was used as a negative control (Control). Viable cell count measurement was performed by the WST-8 method. Specifically, the medium of each well after culture was replaced with 100 μL of growth medium supplemented with a 1/10 amount of viable cell count measurement reagent SF, and the cells were incubated in a CO2 incubator. 30 minutes later and 90 minutes later, absorbance (450 nm, reference wavelength: 630 nm) was measured using a plate reader (VARIOSKAN FLASH, Thermo Fisher Scientific Inc.), and absorbance difference per 60 minutes was regarded as a relative viable cell count."}},
  "data": [
    {"smiles": "C=C1C[C@@]23CC[C@H]4[C@@](C)(CCC[C@@]4(C)C(=O)O)[C@@H]2CC[C@]1(O)C3", "note": "[Steviol, steviol]", "values": [
      {"measurement": "fat accumulation in adipocytes (in words)", "setting": "[1]; 12.5 to 200 μg/mL", "value": "suppressed fat accumulation in adipocytes in a concentration-dependent manner"},
      {"measurement": "Relative fat accumulation level (%)", "setting": "[1]; steviol 12.5 μg/mL", "value": 98.3, "unit": "%"},
      {"measurement": "Relative fat accumulation level (%)", "setting": "[1]; steviol 25 μg/mL", "value": 91.3, "unit": "%"},
      {"measurement": "Relative fat accumulation level (%)", "setting": "[1]; steviol 50 μg/mL", "value": 80.7, "unit": "%"},
      {"measurement": "Relative fat accumulation level (%)", "setting": "[1]; steviol 100 μg/mL", "value": 70.8, "unit": "%"},
      {"measurement": "Relative fat accumulation level (%)", "setting": "[1]; steviol 200 μg/mL", "value": 40.0, "unit": "%"},
      {"measurement": "cytotoxicity to hepatocytes (in words)", "setting": "HepG2 cells; 100 μg/mL steviol", "value": "no particular cytotoxicity to be noted was found"},
      {"measurement": "Relative viable cell count (%)", "setting": "HepG2 cells; steviol 0.01 μg/mL", "value": 98.8, "unit": "%"},
      {"measurement": "Relative viable cell count (%)", "setting": "HepG2 cells; steviol 0.1 μg/mL", "value": 98.4, "unit": "%"},
      {"measurement": "Relative viable cell count (%)", "setting": "HepG2 cells; steviol 1 μg/mL", "value": 95.3, "unit": "%"},
      {"measurement": "Relative viable cell count (%)", "setting": "HepG2 cells; steviol 10 μg/mL", "value": 95.6, "unit": "%"},
      {"measurement": "Relative viable cell count (%)", "setting": "HepG2 cells; steviol 100 μg/mL", "value": 87.7, "unit": "%"}
    ]}
  ]
}
